Source: patent US20030017976A1, “Therapeutic properties of liposome-encapsulated immunomodulators” (priority 1998, published 2003)
Values joined by “and” are separate entries in the source; they are usually repeats but may differ in a detail not shown here. Equal values may be shown once. Marks after values point to notes of the source that are not given here.

Experiments:
[1] = system: peritoneal exudate macrophages (PEM); assay: Nitrite (NO) production by mouse peritoneal exudate macrophages; format: cell-based; settings: available to 1×10^5 PEM
Procedure: Peritoneal exudate macrophages (PEM) were collected by peritoneal lavage from mice given an intraperitoneal injection of 2.0 ml of thioglycollate broth (Baltimore Biological Laboratory, Cockeysville, Md.) 4 days before harvest (Dong Z, O'Brian C A, et al. J Leukoc Biol (1993) 53:53-60; Xie K, Huang S, et al. Cancer Res (1995) 55:3123-31). The PEM were washed in Ca^+2- an Mg^2+-free HBSS and resuspended in serum-free medium: 1×10^5 cells were plated into each 38-mm^2 well of 96-2311 culture plates (Falcon Plastics, Oxnard, Calif.). After a 90-min incubation, the nonadherent cells were removed by washing with medium. More than 98% of the adherent cell populations were macrophages according to morphology and phagocytic criteria (Saiki I, et al. J Immunol (1985) 135:684-8). […] After treatment, the cultures were washed and macrophage-mediated cytotoxicity against different tumor targets was determined. […]
Nitrite accumulation in the culture supernatant was measured in a colorimetric assay as described previously (Ding A E, et al. J Immunol (1988) 141:2407-12). […] The mixtures were incubated 10 min with shaking, and A540 was measured with the use of a microplate reader (Model 3550; Bio-Rad Corp., San Francisco, Calif.). The concentration of nitrite was determined by comparing it with a standard solution of sodium nitrite in medium.

[2] = system: TG-Mø from C57BL/6 mice; assay: NO production in TG macrophages by free-form and tablet JBT 3002; format: cell-based, mouse; settings: 24 hr
Procedure: Preparation of tablet to free-form in water. Tablet placed in 10 ml sterile, pyrogen-free water for 2-3 min with shaking at room temperature, then 10 ml more water added using Lot PCOO2.115. At 100 μg/tablet, this gave 5 ug/ml active material. Solution opaque with “carrier”-appearing material. Settled to bottom. Placed at 37° C. for about 5 min. pH tested at 8.0. Two aliquots of 10 ml taken. One aliquot was taken to pH 1.5 by a single drop of concentrated HCl. Both samples were placed in a water bath at 37° C. for 30 min. The low pH sample was restored to pH 7.7 with NaOH (took about 5 drops of the NaOH, IN solution). The samples were brought to 50 ml by addition of water, and the final pH was 8.0 for the original and 7.43 for the low pH sample. The solutions were still slightly opaque and filtering with a 0.2 micron filter cleared the solution. Aliquots of about 25 ml were measured in an assay for NO production by macrophages and testing of the working dilution for endotoxin.

[3] = system: L3.6pl human pancreatic tumors; assay: Therapy of L3.6pl human pancreatic tumors in nude mice; format: in vivo, mouse; settings: CPT-11 100 mg/kg i.p. once a week +/− oral JBT 3002 (tablet) 0.05 mcg/dose
Procedure: Table 19 (A, B, C). Therapy of human pancreatic carcinoma liver metastasis. The pancreas of nude mice were injected with 1×10^6 viable human pancreatic cancer L3.6pl cells. […] This regimen was repeated on a weekly basis for 3 weeks. The mice were killed. Pancreatic tumors, liver metastases, and lymph node metastasis were quantified.

[4] = system: human monocytes; assay: Western blot of tyrosine phosphorylation, JNK1 band shift, MAP kinase activation in monocytes; format: cell-based; settings: 20 min
Procedure: After two washes with PBS containing 1 mM Na3 VO4 and 5 mM EDTA, the cells were scraped into 0.1 ml lysis buffer (1% Triton X-100, 20 mM Tris pH 8.0, 137 MM NaCl, 10% glycerol, 1 mM Na3 VO4, 2 mM EDTA, 1 mM PMSF, 20 μM leupeptin, 0.15 U/ml aprotinin). The lysate was placed on ice for 20 min and then centrifuged at 14,000 rpm for 10 min at 4° C. The samples (50 μg) were mixed with sample buffer (62.5 mM Tris/HCl, pH 6.8, 2.3% SDS, 100 mM DTT, and 0.05% bromophenol blue), boiled and, separated on 10% SDS-PAGE. The protein was then transferred onto 0.45 μm nitrocellulose membranes. The filter was blocked with 3% BSA and 1% ovalbumin (ICN Biomedicals, Inc.) in TBS (20 mM Tris/HCl, pH 7.5, 150 mM NaCl), probed with antibodies as indicated in the Results in TTBS (TBS containing 0.1% Tween 20), incubated with a second antibody in the buffer, and visualized by the ECL Western blotting detection system (Dong, Z., et al. J Exp. Med. (1993) 177:1071; Dong, Z. et al. J. Leukoc. Biol. (1993) 58:725).

[5] = system: IL-15; assay: Ileum and liver lesion histology, BrdUrd and IL-15 expression after JBT 3002 and CPT-11; format: in vivo, mouse; settings: mouse, in vivo
Procedure: BALB/c mice were injected with CT-26 colon cancer cells into the spleen. […] Four days after the last injection of CPT-11, some mice were killed and their ileum was harvested and prepared for histology, immunohistochemistry, and molecular biology analyses.

N-hexadecanol-S-[2(R)-3-diodecanoyloxypropyl]-L-cysteinyl-L-alanyl-D-isoglutaminyl-glycyl-taurine sodium salt [JBT3002]
minimal concentration of JBT3002 required to generate significant levels of NO (20 μM) [1]: 0.12 to 0.15 ng
nitrite ([2]; Table 17, JBT 0.003 ng/ml, IFN-γ (10 U/ml)): 17.5 µM
nitrite ([2]; Table 17, JBT 0.003 ng/ml, medium): 0 µM
nitrite ([2]; Table 17, JBT 0.016 ng/ml, IFN-γ (10 U/ml)): 33.7 µM
nitrite ([2]; Table 17, JBT 0.016 ng/ml, medium): 0 µM
nitrite ([2]; Table 17, JBT 0.08 ng/ml, IFN-γ (10 U/ml)): 41 µM
nitrite ([2]; Table 17, JBT 0.08 ng/ml, medium): 0 µM
nitrite ([2]; Table 17, JBT 0.4 ng/ml, IFN-γ (10 U/ml)): 44.7 µM
nitrite ([2]; Table 17, JBT 0.4 ng/ml, medium): 0 µM
nitrite ([2]; Table 17, JBT 2 ng/ml, IFN-γ (10 U/ml)): 53.1 µM
nitrite ([2]; Table 17, JBT 2 ng/ml, medium): 0 µM
nitrite ([2]; Table 17, JBT 10 ng/ml, IFN-γ (10 U/ml)): 60.9* μM
nitrite ([2]; Table 17, JBT 10 ng/ml, medium): 8.4 µM
nitrite ([2]; Table 18, JBT3002 0.0001 ng/ml, 10 U/ml IFN-γ): 0
nitrite ([2]; Table 18, JBT3002 0.0001 ng/ml, medium): 0
nitrite ([2]; Table 18, JBT3002 0.001 ng/ml, 10 U/ml IFN-γ): 8.5
nitrite ([2]; Table 18, JBT3002 0.001 ng/ml, medium): 0
nitrite ([2]; Table 18, JBT3002 0.01 ng/ml, 10 U/ml IFN-γ): 19.5
nitrite ([2]; Table 18, JBT3002 0.01 ng/ml, medium): 0
nitrite ([2]; Table 18, JBT3002 0.1 ng/ml, 10 U/ml IFN-γ): 27.7
nitrite ([2]; Table 18, JBT3002 0.1 ng/ml, medium): 0
nitrite ([2]; Table 18, JBT3002 1 ng/ml, 10 U/ml IFN-γ): 37.7
nitrite ([2]; Table 18, JBT3002 1 ng/ml, medium): 0
nitrite ([2]; Table 18, JBT3002 10 ng/ml, 10 U/ml IFN-γ): 47.1
nitrite ([2]; Table 18, JBT3002 10 ng/ml, medium): 0.5
Incidence LN met ([3]; 31 days): 7/10
Incidence WT/PC ([3]; 31 days): 3/10
Incidence liver met ([3]; 31 days): 2/9
Tumor weight, Average ([3]; 31 days): 706.22 mg
Tumor weight, Max ([3]; 31 days): 981 mg
Tumor weight, Median ([3]; 31 days): 733 mg
Tumor weight, Min ([3]; 31 days): 362 mg
tumor weight (range) ([3]; 31 days): (362-981) mg
Tumor weight, single animals ([3]; 31 days after tumor cell injection, sodium salt): 862 mg and 871 mg and 981 mg and 621 mg and 362 mg and 733 mg and 559 mg and 820 mg and 547 mg
potency in triggering intracellular signaling pathways [4]: significantly more potent than LPS
expression of IL-15 in the ileum [5]: restores or augments this expression
